# ChEMBL document CHEMBL1136837, “Unified QSAR approach to antimicrobials. 4. Multi-target QSAR modeling and comparative multi-distance study of the giant components of antiviral drug-drug complex networks” (Bioorg Med Chem, 2009)
# Columns and labels:
# [1] = tested on: Human rhinovirus sp.; experiment: Antiviral activity against Human rhinovirus; format: functional, organism-based
# [2] = tested on: Human betaherpesvirus 5; experiment: Antiviral activity against Human cytomegalovirus; format: functional, organism-based; details: Human betaherpesvirus 5
# [3] = tested on: Simplexvirus; experiment: Antiviral activity against Herpes simplex virus; format: functional, organism-based
# [4] = tested on: Human alphaherpesvirus 3; experiment: Antiviral activity against Varicella zoster virus; format: functional, organism-based
# [5] = tested on: Vaccinia virus; experiment: Antiviral activity against Vaccinia virus; format: functional, organism-based, Orthopoxvirus vaccinia; details: Orthopoxvirus vaccinia
# [6] = tested on: Influenza A virus; experiment: Antiviral activity against influenza H1N1 virus; format: functional, organism-based
# [7] = tested on: Human immunodeficiency virus 2; experiment: Antiviral activity against HIV2; format: functional, organism-based
# [8] = tested on: Human alphaherpesvirus 1; experiment: Antiviral activity against Herpes simplex virus 1; format: functional, organism-based
# [9] = tested on: Human alphaherpesvirus 2; experiment: Antiviral activity against Herpes simplex virus 2; format: functional, organism-based
# [10] = tested on: Human gammaherpesvirus 4; experiment: Antiviral activity against Epstein-Barr virus; format: functional, organism-based
# [11] = tested on: Human immunodeficiency virus 1; experiment: Antiviral activity against HIV1; format: functional, organism-based
# [12] = tested on: Moloney murine sarcoma virus; experiment: Antiviral activity against Moloney sarcoma virus; format: functional, organism-based
# [13] = tested on: Human adenovirus 2; experiment: Antiviral activity against Human adenovirus 2; format: functional, organism-based; details: Human mastadenovirus C
# [14] = tested on: unidentified influenza virus; experiment: Antiviral activity against influenza virus; format: functional, organism-based
structure (smiles),measurement,setting,value
CCOC(=O)/C=C/[C@H](C[C@H]1CCNC1=O)NC(=O)[C@H](Cc1ccccc1)n1cccc(NC(=O)OCc2ccccc2)c1=O,IC50,[1],469 nM
CCOC(=O)/C=C/[C@H](CCC(N)=O)NC(=O)[C@H](Cc1ccc(F)cc1)n1cccc(NC(=O)OCc2ccccc2)c1=O,IC50,[1],14 nM
CCOC(=O)/C=C/[C@H](CCC(N)=O)NC(=O)[C@H](Cc1ccccc1)n1cccc(NC(=O)c2cc(Cl)on2)c1=O,IC50,[1],240 nM
CCOC(=O)/C=C/[C@H](CCC(N)=O)NC(=O)[C@H](Cc1ccccc1)n1cccc(NC(=O)c2cc(C)on2)c1=O,IC50,[1],16 nM
N#Cc1cn([C@@H]2O[C@H](CO)[C@@H](O)[C@@H]2F)c2ncnc(N)c12,IC50,[2],25 nM
same,IC50,[3],470 nM
O=C(NCc1ccc(Cl)cc1)c1cnc2ccc(C#CCO)cc2c1O,IC50,[3],20000 nM
same,IC50,[4],680 nM
CCCCCCCCCCCCCCCCOCCCOP1(=O)CO[C@@H](CN2CCC(N)=NC2=O)CO1 (some centres not stated),IC50,[2],40 nM
same,IC50,[5],5600 nM
same,IC50,[3],40 nM
CCC(CC)C(NC(C)=O)C1CC(C(=O)O)CC1NC(=N)N (configuration not stated),IC50,[6],640 nM
CCCCCCCCCCCCCCCCCCOCCOP(=O)(O)CO[C@H](CO)Cn1ccc(N)nc1=O,IC50,[5],240 nM
same,IC50,[3],1 nM
CCOC(=O)/C=C/[C@H](C[C@@H]1CCNC1=O)NC(=O)/C=C/c1ccc2c(c1)OCO2,IC50,[1],1810 nM
Nc1nc(O)cc(OCCOCP(=O)(O)O)n1,IC50,[2],0.19 nM
same,IC50,[7],30.2 nM
same,IC50,[8],0.025 nM
same,IC50,[8]; Human alphaherpesvirus 1,0.0362 nM
same,IC50,[5],0.18 nM
same,IC50,[9],0.033 nM
same,IC50,[9]; Human alphaherpesvirus 2,0.0362 nM
CCCC(CCC)C(NC(C)=O)C1CC(C(=O)O)CC1NC(=N)N (configuration not stated),IC50,[6],720 nM
O=C(NCc1ccc(Cl)cc1)c1cnc2c(F)cccc2c1O,IC50,[2],11000 nM
same,IC50,[3],13000 nM
same,IC50,[4],1200 nM
COc1nc(N)nc2c1ncn2/C=C1/CC1(CO)CO,IC50,[8]; Human alphaherpesvirus 1,361000 nM
same,IC50,[10],161000 nM
same,IC50,[9]; Human alphaherpesvirus 2,361000 nM
same,IC50,[4],3000 nM
Nc1nc(OCCOCP(=O)(O)O)cc(OCCOCP(=O)(O)O)n1,IC50,[11],0.141 nM
same,IC50,[7],0.199 nM
same,IC50,[8]; Human alphaherpesvirus 1,0.596 nM
same,IC50,[12],0.107 nM
same,IC50,[9]; Human alphaherpesvirus 2,0.993 nM
same,IC50,[4],0.124 nM
Nc1nc(OCCOCP(=O)(O)O)cc(=O)n1CCOCP(=O)(O)O,IC50,[11],0.248 nM
same,IC50,[7],0.248 nM
same,IC50,[8]; Human alphaherpesvirus 1,0.993 nM
same,IC50,[12],0.266 nM
same,IC50,[9]; Human alphaherpesvirus 2,0.993 nM
same,IC50,[4],0.124 nM
Nc1cc(SCCOCP(=O)(O)O)nc(N)n1,IC50,[8]; Human alphaherpesvirus 1,0.104 nM
same,IC50,[12],607 nM
same,IC50,[9]; Human alphaherpesvirus 2,0.286 nM
same,IC50,[4],0.0536 nM
CN(C)c1cc(OCCOCP(=O)(O)O)nc(N)n1,IC50,[11],0.342 nM
same,IC50,[7],0.342 nM
same,IC50,[8]; Human alphaherpesvirus 1,1.37 nM
same,IC50,[12],0.455 nM
same,IC50,[9]; Human alphaherpesvirus 2,1.37 nM
same,IC50,[4],0.171 nM
Nc1cc(=O)n(CCOCP(=O)(O)O)cn1,IC50,[11],0.402 nM
same,IC50,[7],0.402 nM
same,IC50,[8]; Human alphaherpesvirus 1,1.61 nM
same,IC50,[12],0.554 nM
same,IC50,[9]; Human alphaherpesvirus 2,1.61 nM
same,IC50,[4],0.201 nM
Nc1cc(O)nc(SCCOCP(=O)(O)O)n1,IC50,[11],0.356 nM
same,IC50,[8]; Human alphaherpesvirus 1,1.42 nM
same,IC50,[12],0.256 nM
same,IC50,[9]; Human alphaherpesvirus 2,1.42 nM
same,IC50,[4],0.178 nM
Nc1nc(NC2CC2)cc(OCCOCP(=O)(O)O)n1,IC50,[11],0.329 nM
same,IC50,[8]; Human alphaherpesvirus 1,0.789 nM
same,IC50,[12],0.132 nM
same,IC50,[9]; Human alphaherpesvirus 2,0.263 nM
same,IC50,[4],0.164 nM
Nc1ncnc2c1c(Br)cn2COC(CO)CO,IC50,[2],1500 nM
same,IC50,[3],1800 nM
CCOC(=O)/C=C/[C@H](C[C@@H]1CCNC1=O)NC(=O)/C=C/c1cccc(Br)c1,IC50,[1],1400 nM
CCOC(=O)/C=C/[C@H](C[C@@H]1CCNC1=O)NC(=O)/C=C/c1ccc(C)c(Br)c1,IC50,[1],1290 nM
CCOC(=O)/C=C/[C@H](C[C@@H]1CCNC1=O)NC(=O)c1ccc2ccccc2c1,IC50,[1],150 nM
Nc1ncnc2c1c(Br)cn2COCCO,IC50,[3],16000 nM
Nc1nc2c(ncn2/C=C2/CC2(CO)CO)c(=O)[nH]1 [FILOCICLOVIR],IC50,[8]; Human alphaherpesvirus 1,380000 nM
same,IC50,[10],45000 nM
same,IC50,[9]; Human alphaherpesvirus 2,380000 nM
same,IC50,[4],380000 nM
O=C(O)P(=O)(O)O [FOSCARNET],IC50,[2],7000 nM
same,IC50,[13],500000 nM
Cn1cnc2c(NCc3ccccc3)nc(NCCO)nc21 [OLOMOUCINE],IC50,[3],100000 nM
CCC(CC)[C@H](NC(C)=O)[C@@H]1[C@H](O)[C@@H](C(=O)O)C[C@H]1NC(=N)N [PERAMIVIR ANHYDROUS],IC50,[14],8400 nM
same,IC50,[6],200 nM
N#Cc1cn([C@@H]2O[C@H](CO)[C@@H](O)[C@H]2O)c2ncnc(N)c12 [TOYOCAMYCIN],IC50,[3],38000 nM
Nc1ccn([C@H]2CC[C@@H](CO)O2)c(=O)n1 [ZALCITABINE],IC50,[13],3300 nM
Cc1cn([C@H]2C[C@H](N=[N+]=[N-])[C@@H](CO)O2)c(=O)[nH]c1=O [ZIDOVUDINE],IC50,[11],5 nM
same,IC50,[7],5 nM
